Measured values as given in patent publication US6525001B1, “Substituted pyrimidine and pyridine herbicides” (Mid-American Commercialization Corporation, priority 1997, dated 2003).

What was measured:
Assay type in all cases: in vivo
[1] = tested on: blackgrass (Alopecurus myosuroides); assay: Test B pre-/postemergence; set-up: key: 0 is no effect; 10 is complete control
How it was run: (§1)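 Compounds in a surfactant-containing, non-phytotoxic solvent blend are applied to freshly planted seed (preemergence) and, concurrently, to seedlings of 2 to 18 cm at 1–4 leaves (postemergence). Plants stay in the greenhouse twelve to sixteen days and are then scored visually from 0 (no effect) to 10 (complete control).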

[2] = tested on: wild oat (Avena fatua); assay: Test B pre-/postemergence; set-up: key: 0 is no effect; 10 is complete control
How it was run: as §1

[3] = tested on: purple nutsedge (Cyperus rotundus); assay: Test C; set-up: key: 0 was no effect; 100 was complete control; conditions: PREEMERGENCE
[4] = tested on: surinam grass (Brachiaria decumbens); assay: Test C; set-up: key: 0 was no effect; 100 was complete control; conditions: PREEMERGENCE
[5] = tested on: sandbur (Cenchrus echinatus); assay: Test E pre-/postemergence/post directed; set-up: key: 0 is no injury; 100 is complete control; conditions: Rate 32 g/ha
How it was run: (§2)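 Injury was scored visually on a 0 to 100 scale (100 = complete control) 13 to 21 days after treatment of greenhouse-grown plants. Test chemicals, in a surfactant-containing non-phytotoxic solvent, were sprayed onto soil within a day of planting, onto plants at the two to four leaf stage, or directed at the base of the plants.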

[6] = tested on: purple nutsedge (Cyperus rotundus); assay: Test E pre-/postemergence/post directed; set-up: key: 0 is no injury; 100 is complete control
How it was run: as §2

[7] = tested on: common ragweed (Ambrosia elatior); assay: Test C; set-up: key: 0 was no effect; 100 was complete control; conditions: PREEMERGENCE
[8] = tested on: common groundsel (Senecio vulgaris); assay: Test E pre-/postemergence/post directed
How it was run: as §2

[9] = tested on: pitted morningglory (Ipomoea lacunosa); assay: Test E pre-/postemergence/post directed
How it was run: as §2

[10] = tested on: fall panicum (Panicum dichotomiflorum); assay: Test C; set-up: key: 0 was no effect; 100 was complete control; conditions: PREEMERGENCE
[11] = tested on: johnsongrass (Sorghum halepense); assay: Test C; conditions: PREEMERGENCE
[12] = tested on: rice (Oryza sativa); assay: Test B flood test; set-up: key: 0 is no effect; 10 is complete control
How it was run: (§3)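 Read-out is a visual response score from 0 (no effect) to 10 (complete control), assigned by comparison with untreated controls. Treatment was applied at the 2-leaf stage, and plants stayed in the greenhouse for twelve to sixteen days before scoring.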

[13] = tested on: bamyardgrass (Echinochloa crus-galli); assay: Test B flood test; set-up: key: 0 is no effect; 10 is complete control
How it was run: as §3

[14] = tested on: duck salad (Heteranthera limosa); assay: Test B flood test; set-up: key: 0 is no effect; 10 is complete control
How it was run: as §3

[15] = tested on: smallflower flatsedge (Cyperus difformis); assay: Test B flood test; set-up: key: 0 is no effect; 10 is complete control
How it was run: as §3

[16] = Rate 62 g/ha, Postemergence (flood test)
[17] = Rate 125 g/ha, Postemergence section (flood test species)
[18] = Rate 250 g/ha, Postemergence (flood test species)
[19] = Rate 500 g/ha, Postemergence (flood test species)
[20] = Rate 125 g/ha, Postemergence, flood test

Cc1cnc(-n2ccc(C(F)(F)F)n2)nc1Cn1ccc(C(F)(F)F)n1 [Compound 52]
35: Plant response rating, Com. groundsel ([8]; PREEMERGENCE, Rate 32 g/ha)
80: Plant response rating, P. morninglory ([9]; POSTEMERGENCE, Rate 125 g/ha) | Plant response rating, P. morninglory ([9]; POSTEMERGENCE, Rate 250 g/ha) | Plant response rating, Johnsongrass ([11]; Rate 140 g/ha)
3: Wild oats plant response rating ([2]; Rate 62 g/ha, Preemergence) | Plant response rating, Rice [12, 16]
9: Blackgrass plant response rating ([1]; Rate 125 g/ha, Postemergence) | Plant response rating, Blackgrass ([1]; Rate 250 g/ha, Postemergence) | Plant response rating, Blackgrass ([1]; Rate 500 g/ha, Postemergence) | Plant response rating, Wild oats ([2]; Rate 250 g/ha, Preemergence) | Plant response rating, Wild oats ([2]; Rate 500 g/ha, Postemergence) | Plant response rating, Ducksalad [14, 16] | Ducksalad plant response rating [14, 17] | Plant response rating, Ducksalad [14, 18] | Plant response rating, Ducksalad [14, 19] | Plant response rating, S. Flatsedge [15, 16] | S. Flatsedge plant response rating [15, 17] | Plant response rating, S. Flatsedge [15, 18] | Plant response rating, S. Flatsedge [15, 19]
0: Plant response rating, Purple nutsedge ([3]; Rate 35 g/ha) | Plant response rating, Sandbur ([5]; PREEMERGENCE)
6: Wild oats plant response rating ([2]; Rate 62 g/ha, Postemergence) | Barnyardgrass plant response rating [13, 17]
98: Plant response rating, Com. groundsel ([8]; PREEMERGENCE, Rate 64 g/ha)
70: Plant response rating, Surinam grass ([4]; Rate 140 g/ha)
40: Plant response rating, Surinam grass ([4]; Rate 70 g/ha) | Plant response rating, Purple nutsedge ([6]; POSTEMERGENCE, Rate 125 g/ha) | Plant response rating, Common ragweed ([7]; Rate 35 g/ha) | Plant response rating, Johnsongrass ([11]; Rate 35 g/ha)
30: Plant response rating, Purple nutsedge ([6]; PREEMERGENCE, Rate 64 g/ha)
7: Plant response rating, Rice [12, 18] | Plant response rating, Rice [12, 19] | Plant response rating, Barnyardgrass [13, 18]
8: Plant response rating, Blackgrass ([1]; Rate 125 g/ha, Preemergence) | Wild oats plant response rating ([2]; Rate 125 g/ha, Postemergence) | Plant response rating, Wild oats ([2]; Rate 250 g/ha, Postemergence) | Plant response rating, Barnyardgrass [13, 19]
50: Plant response rating, Purple nutsedge ([6]; POSTEMERGENCE, Rate 250 g/ha) | Plant response rating, Purple nutsedge ([6]; PREEMERGENCE, Rate 125 g/ha) | Plant response rating, P. morninglory ([9]; PREEMERGENCE, Rate 32 g/ha) | Plant response rating, Johnsongrass ([11]; Rate 70 g/ha)
10: Plant response rating, Blackgrass ([1]; Rate 250 g/ha, Preemergence) | Plant response rating, Blackgrass ([1]; Rate 500 g/ha, Preemergence) | Plant response rating, Wild oats ([2]; Rate 500 g/ha, Preemergence) | Plant response rating, Purple nutsedge ([3]; Rate 140 g/ha)
60: Plant response rating, Common ragweed ([7]; Rate 70 g/ha)
100: Plant response rating, Common ragweed ([7]; Rate 140 g/ha) | Plant response rating, Fall panicum ([10]; Rate 35 g/ha) | Plant response rating, Fall panicum ([10]; Rate 70 g/ha) | Plant response rating, Fall panicum ([10]; Rate 140 g/ha)
5: Plant response rating, Blackgrass ([1]; Rate 62 g/ha, Postemergence) | Blackgrass plant response rating ([1]; Rate 62 g/ha, Preemergence) | Plant response rating, Wild oats ([2]; Rate 125 g/ha, Preemergence) | Plant response rating, Purple nutsedge ([3]; Rate 70 g/ha) | Plant response rating, Surinam grass ([4]; Rate 35 g/ha) | Plant response rating, Purple nutsedge ([6]; PREEMERGENCE, Rate 32 g/ha) | Rice plant response rating [12, 17] | Plant response rating, Barnyardgrass [13, 16]

Cc1cnc(-n2ccc(C(F)(F)F)n2)nc1Cc1cccc(C(F)(F)F)c1 [Example 2, 5-methyl-4-[[3-(trifluoromethyl)phenyl]methyl]-2-[3-(trifluoromethyl)-1H-pyrazol-1-yl]pyrimidine]
9: Plant response rating, Blackgrass ([1]; Rate 500 g/ha, Postemergence) | Wild oats plant response rating ([2]; Rate 125 g/ha, Preemergence) | Plant response rating, Wild oats ([2]; Rate 250 g/ha, Preemergence) | Plant response rating, S. Flatsedge [15, 19]
2: Plant response rating, Ducksalad [14, 18] | Plant response rating, Ducksalad [14, 19]
0: Plant response rating, Purple nutsedge ([3]; Rate 35 g/ha) | Plant response rating, Purple nutsedge ([3]; Rate 70 g/ha) | Plant response rating, Purple nutsedge ([3]; Rate 140 g/ha) | Plant response rating, Surinam grass ([4]; Rate 35 g/ha) | Plant response rating, Sandbur ([5]; POSTEMERGENCE) | Plant response rating, Purple nutsedge ([6]; POSTEMERGENCE, Rate 32 g/ha) | Plant response rating, Purple nutsedge ([6]; POSTEMERGENCE, Rate 64 g/ha) | Plant response rating, Purple nutsedge ([6]; POSTEMERGENCE, Rate 125 g/ha) | Plant response rating, Purple nutsedge ([6]; POSTEMERGENCE, Rate 250 g/ha) | Plant response rating, Purple nutsedge ([6]; POSTEMERGENCE, Rate 500 g/ha) | Plant response rating, Purple nutsedge ([6]; PREEMERGENCE, Rate 32 g/ha) | Plant response rating, Purple nutsedge ([6]; PREEMERGENCE, Rate 64 g/ha) | Plant response rating, Purple nutsedge ([6]; PREEMERGENCE, Rate 125 g/ha) | Plant response rating, Purple nutsedge ([6]; PREEMERGENCE, Rate 250 g/ha) | Plant response rating, Purple nutsedge ([6]; PREEMERGENCE, Rate 500 g/ha) | Plant response rating, Common ragweed ([7]; Rate 35 g/ha) | Plant response rating, Common ragweed ([7]; Rate 70 g/ha) | Plant response rating, Fall panicum ([10]; Rate 35 g/ha) | Plant response rating, Ducksalad [14, 16] | Plant response rating, Ducksalad [14, 20]
8: Plant response rating, S. Flatsedge [15, 18]
40: Plant response rating, Com. groundsel ([8]; POSTEMERGENCE, Rate 250 g/ha)
50: Plant response rating, Common ragweed ([7]; Rate 140 g/ha)
90: Plant response rating, P. morninglory ([9]; POSTEMERGENCE, Rate 250 g/ha) | Plant response rating, P. morninglory ([9]; POSTEMERGENCE, Rate 500 g/ha)
7: Blackgrass plant response rating ([1]; Rate 125 g/ha, Preemergence) | Plant response rating, Blackgrass ([1]; Rate 250 g/ha, Postemergence) | Plant response rating, Wild oats ([2]; Rate 500 g/ha, Postemergence)
75: Plant response rating, Com. groundsel ([8]; POSTEMERGENCE, Rate 500 g/ha)
5: Plant response rating, Fall panicum ([10]; Rate 70 g/ha) | Plant response rating, Johnsongrass ([11]; Rate 35 g/ha) | Plant response rating, Johnsongrass ([11]; Rate 70 g/ha) | Plant response rating, Rice [12, 18] | Plant response rating, Barnyardgrass [13, 18] | Plant response rating, S. Flatsedge [15, 20]
35: Plant response rating, Surinam grass ([4]; Rate 140 g/ha)
3: Plant response rating, Blackgrass ([1]; Rate 62 g/ha, Postemergence) | Blackgrass plant response rating ([1]; Rate 62 g/ha, Preemergence) | Plant response rating, Wild oats ([2]; Rate 62 g/ha, Postemergence) | Plant response rating, Wild oats ([2]; Rate 125 g/ha, Postemergence) | Plant response rating, Rice [12, 16] | Plant response rating, Barnyardgrass [13, 16] | Plant response rating, S. Flatsedge [15, 16]
6: Plant response rating, Blackgrass ([1]; Rate 125 g/ha, Postemergence) | Wild oats plant response rating ([2]; Rate 62 g/ha, Preemergence) | Plant response rating, Wild oats ([2]; Rate 250 g/ha, Postemergence) | Plant response rating, Rice [12, 19] | Plant response rating, Barnyardgrass [13, 19]
4: Plant response rating, Rice [12, 20] | Plant response rating, Barnyardgrass [13, 20]
10: Plant response rating, Blackgrass ([1]; Rate 250 g/ha, Preemergence) | Plant response rating, Blackgrass ([1]; Rate 500 g/ha, Preemergence) | Plant response rating, Wild oats ([2]; Rate 500 g/ha, Preemergence) | Plant response rating, Surinam grass ([4]; Rate 70 g/ha)
80: Plant response rating, P. morninglory ([9]; POSTEMERGENCE, Rate 32 g/ha) | Plant response rating, P. morninglory ([9]; POSTEMERGENCE, Rate 64 g/ha) | Plant response rating, P. morninglory ([9]; POSTEMERGENCE, Rate 125 g/ha)
100: Plant response rating, Fall panicum ([10]; Rate 140 g/ha)
20: Plant response rating, Com. groundsel ([8]; POSTEMERGENCE, Rate 64 g/ha) | Plant response rating, Com. groundsel ([8]; POSTEMERGENCE, Rate 125 g/ha)
60: Plant response rating, Johnsongrass ([11]; Rate 140 g/ha)
